What was measured:
NDM-1-expressing E. coli [1] = test: NRTP luciferase live cell reporter assay, NDM-1 detection (Example 1); type: cell-based; settings: 2 hours at 37° C.; for luminescence signal (% RLU normalized to No Antibiotic): FIG. 2
Procedure: An NDM-1 detection assay is produced using a luciferase-expressing non-replicative transduction particle specific to Enterobacteriaceae (as described in PCT/US2014/026536, Example 1), ertapenem, and the chelator Ethylenediaminetetraacetic acid (EDTA).
A culture of a clinical isolate of an NDM-1-expressing E. coli was prepared in LB media and used to determine the response of the NRTP reporter in the presence of ertapenem, EDTA, and Zinc. The assay was prepared by mixing 50 μL of the cell culture at an OD600 of 0.02 to 50 μL of LB media and 100 μL of NRTP reagent prepared in a microwell plate. The assay was incubated for 2 hours at 37° C. under the following conditions: (1) No additives, (2) with the addition of ertapenem at 0.25 μg/mL, (3) with the addition of ertapenem and EDTA at 750 μg/mL, and (4) with the addition of ertapenem and Zinc sulfate at 70 μg/mL. After the incubation, the samples were assayed for luminescence after the injection of a nonanal reagent as a substrate for the live cell reporter using a Molecular Devices SpectraMax L luminometer.
The luminescence readings were then normalized to those produced by sample (1) and plotted as a percentage relative to sample (1) as shown in FIG. 2.

KPC-expressing E. coli [2] = test: Smarticles live cell luminescence assay with inhibitors (Example 4); type: cell-based; settings: clinical isolates
Procedure: (§1) Thus, the ability to quickly detect viable Gram-negative bacteria, determine their susceptibility to carbapenems, and distinguish between carbapenem resistance mechanisms could aid physicians in considering such therapeutic options in the future. […] In this study, a Smarticles™ assay was evaluated for its ability to detect carbapenem resistant E. coli and distinguish between NDM-1 and KPC-expressing organisms.
(§2) Methods: 26 clinical isolates of E. coli, Klebsiella spp., Enterobacter spp., Citrobacter spp., Proteus spp., and S. marcescens were evaluated using the Smarticles™ assay and ertapenem disk diffusion. CRE isolates included organisms expressing blaKPC and blaNDM-1. The Smarticles™ assay was used with the addition of the chelating agent edetic acid (EDTA) and β-lactamase inhibitor boronic acid to scrutinize clinical isolates of E. coli expressing NDM-1 and KPC.

NDM-1-expressing E. coli [3] = type: cell-based; settings: Smarticles assay, clinical isolates
Procedure: as §1, §2

[4] = tested on: Class B carbapenemases (e.g. NDM-1); settings: background statement; cited from earlier work
[5] = tested on: Class A carbapenemases (e.g. KPC); settings: background statement; cited from earlier work
KPC-expressing E. coli [6] = test: NRTP luciferase live cell reporter assay, KPC detection (Example 2); type: cell-based; settings: 2 hours at 37° C.
Procedure: In another embodiment of the invention, a KPC detection assay is produced using a luciferase-expressing non-replicative transduction particle specific to Enterobacteriaceae as described in PCT/US2014/026536, Example 1, ertapenem and the β-lactamase inhibitor boronic acid.
A culture of a clinical isolate of a KPC-expressing E. coli was prepared in LB media and used to determine the response of the NRTP reporter in the presence of ertapenem, and boronic acid. The replicates of the assay were prepared mixing 50 μL of the cell culture at an OD600 of 0.02 to 50 μL of LB media and 100 μL of NRTP reagent prepared in a microwell plate. The assay was incubated for 2 hours at 37° C. under the following conditions: (1) No additives, (2) with the addition of ertapenem at 1 μg/mL, and (3) with the addition of ertapenem and phenyl boronic acid 400 μg/mL. After the incubation, the samples were assayed for luminescence after the injection of a nonanal reagent as a substrate for the live cell reporter using a Molecular Devices SpectraMax L luminometer.
The luminescence readings were then normalized to those produced by sample (1) and plotted as the average percentage relative to sample (1) as shown in FIG. 1.

SMILES: O=C(O)CN(CCN(CC(=O)O)CC(=O)O)CC(=O)O [EDTA, Ethylenediaminetetraacetic acid]
- luminescence signal (% RLU normalized to No Antibiotic) (NDM-1-expressing E. coli [1]; ertapenem 0.25 μg/mL and EDTA 750 μg/mL): significantly decreased
- assay signal in the presence of the inhibitor (KPC-expressing E. coli [2]): not inhibited
- assay signal in the presence of the inhibitor (NDM-1-expressing E. coli [3]): inhibited

SMILES: O=C(NC1CCNCC1)[C@@H]1CC[C@@H]2CN1C(=O)N2OS(=O)(=O)O [Relebactam]
- activity against Class B carbapenemases [4]: not against
- activity against Class A carbapenemases [5]: shown activity

SMILES: O=S(=O)([O-])[O-].[Zn+2] [Zinc, Zinc sulfate]
- luminescence signal (% RLU normalized to No Antibiotic) (NDM-1-expressing E. coli [1]; ertapenem 0.25 μg/mL and Zinc sulfate 70 μg/mL): significantly increased

SMILES: OB(O)c1ccccc1 [boronic acid, phenyl boronic acid]
- assay signal in the presence of the inhibitor (KPC-expressing E. coli [2]): inhibited
- luminescence signal (% RLU normalized to No Antibiotic) (KPC-expressing E. coli [6]; ertapenem 1 μg/mL and phenyl boronic acid 400 μg/mL): significantly decreased
- assay signal in the presence of the inhibitor (NDM-1-expressing E. coli [3]): not inhibited

SMILES: C[C@@H](O)[C@H]1C(=O)N2C(C(=O)O)=C(S[C@@H]3CN[C@H](C(=O)Nc4cccc(C(=O)O)c4)C3)[C@H](C)[C@H]12 [ertapenem]
- luminescence signal (% RLU normalized to No Antibiotic) (NDM-1-expressing E. coli [1]; ertapenem 0.25 μg/mL alone): not significantly decreased
- susceptibility phenotype (NDM-1-expressing E. coli [1]; ertapenem 0.25 μg/mL): non-susceptible
- luminescence signal (% RLU normalized to No Antibiotic) (KPC-expressing E. coli [6]; ertapenem 1 μg/mL alone): not significantly decreased
- susceptibility phenotype (KPC-expressing E. coli [6]; ertapenem 1 μg/mL): non-susceptible
